Converted amounts (≈) assume the structure as drawn. Where two headings read alike, the source gives them in different places.
Key:
[1] = tested on: C. parapsilosis ATCC 22019; test: Anti-Fungal (Candida) Activity Assay, broth microtiter MIC; type: cell-based; conditions: Lodderomyces parapsilosis, ATCC22019; 3 replicates, MIC recorded at 48 h; read-out: MIC C. parapsilosis ATCC 22019
Procedure: (§1) Compounds of the present invention were evaluated in an Anti-Fungal Activity Assay. An exemplary procedure for the assay, which measures the susceptibility of various Candida species to anti-fungal compounds, follows. Compounds to be tested (including fluconazole and amphotericin B) were dissolved in DMSO to obtain a solution having a concentration of 1 mg/mL. […] All species were grown from frozen stock by directly plating on to freshly prepared Sabouraud Dextrose agar (BD, Difco) and incubated overnight in ambient air at 35° C. for 24 h. A direct suspension was prepared in RPMI 1640+MOPS (Lonza, Biowhittaker) by taking individual colonies from the overnight cultures using sterile swabs soaked in sterile saline. The concentration of the suspension was determined using pre-determined standard curves. […] Broth microtiter MIC challenge plates were prepared following CLSI guidelines (M27-A3, Vol. 28 No. 14). The original CLSI guidelines focused on reading Candida MICs after 48 h of incubation. As reading after only 24 h offers a clear advantage of patient care, QC limits are being established for all drugs at 24 h. That being said there are no known interpretive breakpoints for amphotericin B at 24 h and the current fluconazole interpretive breakpoints are based on a 48 h reading. The MIC for the test compounds were recorded at 48 h. All MIC determinations were achieved by visually comparing the growth found in the antibiotic challenged wells to that of the growth control.

[2] = tested on: C. albicans ATCC 90028; test: as above; type: cell-based; conditions: ATCC90028, 3 replicates, MIC recorded at 48 h, read-out: MIC C. albicans ATCC 90028
Procedure: as §1

[3] = tested on: C. krusei ATCC 6258; test: as above; type: cell-based; conditions: Pichia kudriavzevii, ATCC6258; 3 replicates, MIC recorded at 48 h; read-out: MIC C. krusei ATCC 6258
Procedure: as §1

[4] = target: human (hACC2) ACC2 (Homo sapiens, UniProt O00763); test: In vitro Acetyl-CoA Carboxylase (ACC) inhibition assay (ADP-Glo), hACC2; type: biochemical
Procedure: The detailed procedure is as follows. […] 10 μL ADP glo reagent was added. […] 20 μL kinase detection reagent was added.
“NA” stands for “not assayed.”

[5] = tested on: Phytophthora capsici (Pc); test: Growth inhibition assay of fungal pathogens; type: cell-based; conditions: 48 hours; for IC90: Phytophthora capsici, read-out: Concentration at 90% Inhibition Pc
Procedure: (§2) Compounds of the present invention were evaluated in a growth inhibition assay to determine the ability to control the growth of fungal pathogens, such as Botrtyis cinerea (Bc), Collectotrichum graminicola (Cg). Diplodia maydis (Dm), Fusarium moniliforme (Fm), Fusarium virguliforme (Fv), Phytophthora capsici (Pc), Rhizoctonia solani (Rs), and Septoria tritici (St). Compounds to be tested were dissolved in DMSO at 2.5 mg/ml to produce compound stock solutions (“stocks”). Stocks were diluted with DMSO by a five-fold dilution in a 96-well stock plate, and two sets of final concentrations of 50, 10, and 2 ppm or 2, 0.4, and 0.08 ppm were obtained in vitro. A set of positive controls was also prepared, with various concentrations of Soraphen (2, 0.4, and 0.08 ppm), Metalaxyl (1.1, 0.22, and 0.04 ppm), and Metconazole (2, 0.4, and 0.08 ppm or 0.2, 0.04, and 0.008 ppm) after the five-fold dilutions. Negative controls on each plate included 2% DMSO, water, and a blank (media+2% DMSO). Fungal spores were isolated from previously sub-cultured plates of Botrtyis cinerea (Bc). Collectotrichum graminicola (Cg). Diplodia maydis (Dm), Fusarium moniliforme (Fm), Fusarium virguliforme (Fv), Phytophthora capsici (Pc), and Septoria tritici (St). The isolated spores were diluted to individual concentrations with a 17% V8 liquid media. For Rhizoctonia solani (Rs) and Pythium irregulare, 1.5 mm mycelial plugs were used in place of spores and ¼ Potato Dextrose Broth (PDB) was used for dilution. The spore concentrations and plug sizes were based on growth curves generated at 48 hours for each pathogen. In a second 96-well plate, the spores or mycelial plugs, media, diluted compound solutions, and controls were combined. Once the compound was added, a true final concentration of compound in each well was measured by an OD600 reading, which adjusted for any compound precipitation that might have occurred in the well. Plate readings were repeated at both 24 and 48 hours. The blank negative control was used as a background subtraction. Additional visual ratings were performed at both 24 and 48 hours for checking on precipitation and confirming efficacy. Visual and OD600 ratings of the compounds at 48 hours were compared to the 2% DMSO negative control, and the percent of pathogen growth inhibition was determined based on those values.

[6] = tested on: Fusarium virguliforme (Fv); test: Growth inhibition assay of fungal pathogens; type: cell-based; conditions: 48 h, 48 hours, read-out: Concentration at 90% Inhibition Fv
Procedure: as §2

[7] = tested on: Septoria tritici (St); test: Growth inhibition assay of fungal pathogens; type: cell-based; conditions: 48 hours; for IC90: Zymoseptoria tritici, read-out: Concentration at 90% Inhibition St
Procedure: as §2

[8] = tested on: Collectotrichum graminicola (Cg); test: Growth inhibition assay of fungal pathogens; type: cell-based; conditions: 48 h, read-out: Concentration at 90% Inhibition Cg
Procedure: as §2

[9] = tested on: Rhizoctonia solani (Rs); test: Growth inhibition assay of fungal pathogens; type: cell-based; conditions: 48 h, read-out: Concentration at 90% Inhibition Rs
Procedure: as §2

[10] = tested on: Botrtyis cinerea (Bc); test: Growth inhibition assay of fungal pathogens; type: cell-based; conditions: 48 h, read-out: Concentration at 90% Inhibition Bc
Procedure: as §2

[11] = tested on: Fusarium moniliforme (Fm); test: Growth inhibition assay of fungal pathogens; type: cell-based; conditions: Fusarium verticillioides, 48 h, 48 hours, read-out: Concentration at 90% Inhibition Fm
Procedure: as §2

[12] = tested on: Diplodia maydis (Dm); test: Growth inhibition assay of fungal pathogens; type: cell-based; conditions: Stenocarpella maydis, 48 h, read-out: Concentration at 90% Inhibition Dm
Procedure: as §2

human (hACC2) ACC2, sequence (O00763 whole entry): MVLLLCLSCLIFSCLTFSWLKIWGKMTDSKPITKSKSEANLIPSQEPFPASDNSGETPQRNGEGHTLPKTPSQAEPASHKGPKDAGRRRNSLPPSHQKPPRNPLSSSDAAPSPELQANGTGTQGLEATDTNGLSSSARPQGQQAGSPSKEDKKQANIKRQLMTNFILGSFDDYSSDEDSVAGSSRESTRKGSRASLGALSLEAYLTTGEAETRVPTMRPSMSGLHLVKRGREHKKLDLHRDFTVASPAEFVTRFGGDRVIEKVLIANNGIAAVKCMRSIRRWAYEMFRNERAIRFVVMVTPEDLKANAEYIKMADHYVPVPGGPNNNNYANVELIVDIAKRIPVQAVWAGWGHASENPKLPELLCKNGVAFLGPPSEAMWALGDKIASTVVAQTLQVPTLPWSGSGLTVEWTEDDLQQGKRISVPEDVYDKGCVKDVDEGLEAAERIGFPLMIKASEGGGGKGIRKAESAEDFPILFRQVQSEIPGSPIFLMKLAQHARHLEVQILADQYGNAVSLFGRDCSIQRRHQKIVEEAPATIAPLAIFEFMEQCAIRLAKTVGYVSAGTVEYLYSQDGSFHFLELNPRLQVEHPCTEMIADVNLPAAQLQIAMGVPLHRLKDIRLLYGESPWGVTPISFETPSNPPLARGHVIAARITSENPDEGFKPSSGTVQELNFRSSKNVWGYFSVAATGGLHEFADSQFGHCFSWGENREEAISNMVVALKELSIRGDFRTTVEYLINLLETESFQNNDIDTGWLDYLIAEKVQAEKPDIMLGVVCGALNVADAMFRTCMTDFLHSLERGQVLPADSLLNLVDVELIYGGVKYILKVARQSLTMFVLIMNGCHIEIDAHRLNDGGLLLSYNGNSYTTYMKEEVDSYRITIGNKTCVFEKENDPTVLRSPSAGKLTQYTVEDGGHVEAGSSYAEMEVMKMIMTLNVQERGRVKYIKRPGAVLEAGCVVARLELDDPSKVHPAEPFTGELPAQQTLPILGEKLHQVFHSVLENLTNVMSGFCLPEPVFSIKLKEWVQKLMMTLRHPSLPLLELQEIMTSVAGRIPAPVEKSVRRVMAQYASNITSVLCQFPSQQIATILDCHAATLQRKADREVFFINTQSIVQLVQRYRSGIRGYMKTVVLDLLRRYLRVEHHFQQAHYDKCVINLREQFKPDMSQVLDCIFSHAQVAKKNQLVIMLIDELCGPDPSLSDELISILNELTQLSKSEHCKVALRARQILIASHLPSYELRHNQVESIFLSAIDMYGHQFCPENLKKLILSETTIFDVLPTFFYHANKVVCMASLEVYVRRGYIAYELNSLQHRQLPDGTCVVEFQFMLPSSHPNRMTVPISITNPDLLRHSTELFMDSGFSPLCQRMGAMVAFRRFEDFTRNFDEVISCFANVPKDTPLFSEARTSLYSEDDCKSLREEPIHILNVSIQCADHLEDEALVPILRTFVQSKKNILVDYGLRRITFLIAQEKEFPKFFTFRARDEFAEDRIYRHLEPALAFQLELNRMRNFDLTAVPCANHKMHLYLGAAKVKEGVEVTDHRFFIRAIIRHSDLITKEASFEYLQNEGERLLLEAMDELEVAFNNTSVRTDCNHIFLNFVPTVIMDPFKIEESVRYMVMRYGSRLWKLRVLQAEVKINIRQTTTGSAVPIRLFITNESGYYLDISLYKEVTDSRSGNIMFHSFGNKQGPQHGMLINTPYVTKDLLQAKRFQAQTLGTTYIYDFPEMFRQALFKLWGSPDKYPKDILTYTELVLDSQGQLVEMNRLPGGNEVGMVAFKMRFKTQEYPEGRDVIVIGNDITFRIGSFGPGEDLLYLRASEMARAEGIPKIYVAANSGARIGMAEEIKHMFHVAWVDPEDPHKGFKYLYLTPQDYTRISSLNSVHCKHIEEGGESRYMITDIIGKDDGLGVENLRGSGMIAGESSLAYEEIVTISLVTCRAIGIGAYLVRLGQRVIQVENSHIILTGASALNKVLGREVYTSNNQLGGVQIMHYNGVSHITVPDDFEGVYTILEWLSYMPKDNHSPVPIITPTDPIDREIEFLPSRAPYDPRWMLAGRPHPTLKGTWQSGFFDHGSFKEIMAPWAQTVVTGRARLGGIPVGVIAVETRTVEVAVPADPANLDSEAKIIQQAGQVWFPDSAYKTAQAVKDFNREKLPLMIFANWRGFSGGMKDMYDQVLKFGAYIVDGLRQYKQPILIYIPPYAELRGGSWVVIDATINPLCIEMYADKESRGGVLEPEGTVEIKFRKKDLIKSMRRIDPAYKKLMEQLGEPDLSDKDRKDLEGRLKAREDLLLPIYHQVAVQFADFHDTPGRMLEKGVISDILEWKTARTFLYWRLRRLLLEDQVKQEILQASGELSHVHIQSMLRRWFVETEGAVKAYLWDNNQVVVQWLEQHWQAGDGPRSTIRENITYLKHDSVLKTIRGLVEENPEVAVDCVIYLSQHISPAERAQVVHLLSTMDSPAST

Row | SMILES | MIC [1] | MIC [2] | MIC [3] | IC50 [4] | IC90 ([5]; Table 4a) | Concentration at 90% Inhibition Pc ([5]; Table 4b) | IC90 ([6]; Table 4a) | IC90 ([6]; Table 4b) | Concentration at 90% Inhibition St ([7]; Table 4b) | IC90 ([7]; Table 4a) | IC90 ([8]; Table 4a) | IC90 ([8]; Table 4b) | IC90 ([9]; Table 4a) | IC90 ([9]; Table 4b) | IC90 ([10]; Table 4a) | IC90 ([10]; Table 4b) | IC90 ([11]; Table 4b) | IC90 ([12]; Table 4b) | IC90 ([5]; Table 4b) | IC90 ([7]; Table 4b) | other results
1 | COc1ccc(F)cc1[C@H](Cn1c(=O)n(C(C)(C)C(=O)N2CCOCC2)c(=O)c2c(C)c(-n3cccn3)sc21)OC(C)C [Compound I-3, (R)-1-(2-(5-fluoro-2-methoxyphenyl)-2-isopropoxyethyl)-5-methyl-3-(2-methyl-1-morpholino-1-oxopropan-2-yl)-6-(1H-pyrazol-1-yl)thieno[2,3-d]pyrimidine-2,4(1H,3H)-dione] | > 4.1 µg/mL | > 4.1 µg/mL | 2.1 to 4 µg/mL (≈ 3.42 to 6.52 µM) | 10 to 40 nM | > 50 µg/mL | D (“D” provided a compound concentration of >50 ppm at 90% inhibition of fungal pathogens) | 2 µg/mL (≈ 3.26 µM) | 2 µg/mL (≈ 3.26 µM) | D (“D” provided a compound concentration of >50 ppm at 90% inhibition of fungal pathogens) | > 50 µg/mL | > 50 µg/mL | > 50 µg/mL | > 50 µg/mL | > 50 µg/mL | > 50 µg/mL | 10 µg/mL (≈ 16.3 µM) | 2 µg/mL (≈ 3.26 µM) | 10 µg/mL (≈ 16.3 µM) | – | – | IC90 ([11]; Table 4a): 2 µg/mL (≈ 3.26 µM); IC90 ([12]; Table 4a): > 50 µg/mL
2 | COc1ccc(F)cc1[C@H](Cn1c(=O)n(C(C)(C)C(N)=O)c(=O)c2c(C)c(-n3cccn3)sc21)OC1CCOCC1 [Compound I-4, (R)-2-(1-(2-(5-fluoro-2-methoxyphenyl)-2-((tetrahydro-2H-pyran-4-yl)oxy)ethyl)-5-methyl-2,4-dioxo-6-(1H-pyrazol-1-yl)-1,4-dihydrothieno[2,3-d]pyrimidin-3(2H)-yl)-2-methylpropanamide] | > 4.1 µg/mL | > 4.1 µg/mL | 2.1 to 4 µg/mL (≈ 3.59 to 6.83 µM) | 10 to 40 nM | > 50 µg/mL | D (“D” provided a compound concentration of >50 ppm at 90% inhibition of fungal pathogens) | > 50 µg/mL | > 50 µg/mL | D (“D” provided a compound concentration of >50 ppm at 90% inhibition of fungal pathogens) | > 50 µg/mL | > 50 µg/mL | 10 µg/mL (≈ 17.1 µM) | > 50 µg/mL | > 50 µg/mL | 2 µg/mL (≈ 3.41 µM) | 2 µg/mL (≈ 3.41 µM) | 2 µg/mL (≈ 3.41 µM) | > 50 µg/mL | – | – | IC90 ([11]; Table 4a): 2 µg/mL (≈ 3.41 µM); IC90 ([12]; Table 4a): > 50 µg/mL
3 | COc1ccc(F)cc1[C@H](Cn1c(=O)n(C(C)(C)C(=O)N2CC(O)C2)c(=O)c2c(C)c(-n3cccn3)sc21)OC1CCOCC1 [Compound I-9, (R)-1-(2-(5-fluoro-2-methoxyphenyl)-2-((tetrahydro-2H-pyran-4-yl)oxy)ethyl)-3-(1-(3-hydroxyazetidin-1-yl)-2-methyl-1-oxopropan-2-yl)-5-methyl-6-(1H-pyrazol-1-yl)thieno[2,3-d]pyrimidine-2,4(1H,3H)-dione] | – | – | – | 10 to 40 nM | – | – | – | > 50 µg/mL | – | – | – | > 50 µg/mL | – | > 50 µg/mL | – | > 50 µg/mL | > 50 µg/mL | > 50 µg/mL | > 50 µg/mL | > 50 µg/mL | –
4 | COc1ccccc1[C@H](Cn1c(=O)n(C(C)(C)C(N)=O)c(=O)c2c(C)c(-n3cccn3)sc21)OC1CCOCC1 [Compound I-10, (R)-2-(1-(2-(2-methoxyphenyl)-2-((tetrahydro-2H-pyran-4-yl)oxy)ethyl)-5-methyl-2,4-dioxo-6-(1H-pyrazol-1-yl)-1,4-dihydrothieno[2,3-d]pyrimidin-3(2H)-yl)-2-methylpropanamide] | – | – | – | 3 to 10 nM | – | – | – | > 50 µg/mL | – | – | – | > 50 µg/mL | – | > 50 µg/mL | – | > 50 µg/mL | 10 µg/mL (≈ 17.6 µM) | > 50 µg/mL | > 50 µg/mL | > 50 µg/mL | –
5 | COc1ccccc1[C@H](Cn1c(=O)n(C(C)(C)C(N)=O)c(=O)c2c(C)c(-n3cccn3)sc21)OC(C)C [Compound I-16, (R)-2-(1-(2-isopropoxy-2-(2-methoxyphenyl)ethyl)-5-methyl-2,4-dioxo-6-(1H-pyrazol-1-yl)-1,4-dihydrothieno[2,3-d]pyrimidin-3(2H)-yl)-2-methylpropanamide] | – | – | – | 10 to 40 nM | – | – | – | > 50 µg/mL | – | – | – | > 50 µg/mL | – | 10 µg/mL (≈ 19 µM) | – | > 50 µg/mL | > 50 µg/mL | > 50 µg/mL | > 50 µg/mL | > 50 µg/mL | –
6 | COc1ccccc1[C@H](Cn1c(=O)n(C(C)(C)C(N)=O)c(=O)c2c(C)c(-n3cccn3)sc21)OCC(C)C [Compound I-20, (R)-2-(1-(2-isobutoxy-2-(2-methoxyphenyl)ethyl)-5-methyl-2,4-dioxo-6-(1H-pyrazol-1-yl)-1,4-dihydrothieno[2,3-d]pyrimidin-3(2H)-yl)-2-methylpropanamide] | – | – | – | 3 to 10 nM | – | – | – | > 50 µg/mL | – | – | – | > 50 µg/mL | – | > 50 µg/mL | – | 10 µg/mL (≈ 18.5 µM) | 10 µg/mL (≈ 18.5 µM) | 10 µg/mL (≈ 18.5 µM) | > 50 µg/mL | > 50 µg/mL | –
